Results from ChEMBL document CHEMBL1287684, “5-(pyridinon-1-yl)indazoles and 5-(furopyridinon-5-yl)indazoles as MCH-1 antagonists” (Bioorg Med Chem Lett, 2010).
In brackets after ≈: the same amount, converted by molar mass.

Assays:
[1] = biological target: Voltage-gated inwardly rectifying potassium channel KCNH2 (Homo sapiens, UniProt Q12809); assay: Inhibition of human ERG expressed in HEK cells by mini-patch clamp assay
[2] = biological target: T1, Melanin-concentrating hormone receptor 1 (Homo sapiens, UniProt Q99705); assay: Displacement of [3H]4-(benzyloxy)-1-(1-(2-(pyrrolidin-1-yl)ethyl)-1H-indazol-5-yl)pyridin-2(1H)-one from MCH-1 receptor expressed in CHO-K1 cells; format: cell-based
[3] = Half life in human liver microsomes; format: ADME, Microsome
[4] = Aqueous solubility in PBS at pH 7.4; format: physicochemical
[5] = Half life in mouse liver microsomes; format: ADME, Microsome
Mus musculus [6] = assay: Antiobesity activity in diet-induced obese C57BL/6J mouse model assessed as reduction of body weight at 30 mg/kg, po bid for 5 days; format: functional; design: scale not given: the % may be the effect or the level left
Cytochrome P450 3A4 = Cytochrome P450 3A4 (Homo sapiens, UniProt P08684); assay: Inhibition of CYP3A4; format: ADME
[7] = Drug level in mouse brain at 30 mg/kg after 6 hrs; format: ADME, organism-based; design: dose 30 mg/kg; conditions: read-out: Drug uptake
[8] = Plasma concentration in mouse at 30 mg/kg after 6 hrs; format: ADME, organism-based; design: dose 30 mg/kg
Cytochrome P450 1A2 = biological target: T2, Cytochrome P450 1A2 (Homo sapiens, UniProt P05177); assay: Inhibition of CYP1A2; format: ADME
T2 sequence (P05177 whole entry): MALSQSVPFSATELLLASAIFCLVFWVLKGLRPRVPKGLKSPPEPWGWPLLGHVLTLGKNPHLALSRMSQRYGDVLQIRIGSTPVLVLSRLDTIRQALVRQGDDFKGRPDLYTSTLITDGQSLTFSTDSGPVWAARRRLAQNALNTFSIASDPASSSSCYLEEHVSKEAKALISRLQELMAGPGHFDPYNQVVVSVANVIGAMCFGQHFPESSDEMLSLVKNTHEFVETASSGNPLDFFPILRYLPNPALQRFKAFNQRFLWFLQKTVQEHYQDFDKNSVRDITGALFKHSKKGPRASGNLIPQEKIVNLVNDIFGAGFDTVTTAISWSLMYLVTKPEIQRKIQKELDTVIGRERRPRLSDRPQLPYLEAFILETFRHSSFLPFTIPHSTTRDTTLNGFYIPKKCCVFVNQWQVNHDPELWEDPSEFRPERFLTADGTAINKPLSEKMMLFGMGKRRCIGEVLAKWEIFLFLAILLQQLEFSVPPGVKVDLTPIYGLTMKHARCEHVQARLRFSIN

[9] = biological target: T1, Melanin-concentrating hormone receptor 1; assay: Antagonistic activity at MCH-1 receptor expressed in CHO-K1 cell assessed as inhibition of MCH-induced calcium release; format: functional, cell-based
[10] = Ratio of drug level in brain to plasma in mouse at 30 mg/kg after 6 hrs; format: ADME, organism-based; design: dose 30 mg/kg; conditions: read-out: BPR
Cytochrome P450 2D6 = Cytochrome P450 2D6 (Homo sapiens, UniProt P10635); assay: Inhibition of CYP2D6; format: ADME
Cytochrome P450 2B6 = biological target: T3, Cytochrome P450 2B6 (Homo sapiens, UniProt P20813); assay: Inhibition of CYP2B6; format: ADME
T3 sequence (P20813 whole entry): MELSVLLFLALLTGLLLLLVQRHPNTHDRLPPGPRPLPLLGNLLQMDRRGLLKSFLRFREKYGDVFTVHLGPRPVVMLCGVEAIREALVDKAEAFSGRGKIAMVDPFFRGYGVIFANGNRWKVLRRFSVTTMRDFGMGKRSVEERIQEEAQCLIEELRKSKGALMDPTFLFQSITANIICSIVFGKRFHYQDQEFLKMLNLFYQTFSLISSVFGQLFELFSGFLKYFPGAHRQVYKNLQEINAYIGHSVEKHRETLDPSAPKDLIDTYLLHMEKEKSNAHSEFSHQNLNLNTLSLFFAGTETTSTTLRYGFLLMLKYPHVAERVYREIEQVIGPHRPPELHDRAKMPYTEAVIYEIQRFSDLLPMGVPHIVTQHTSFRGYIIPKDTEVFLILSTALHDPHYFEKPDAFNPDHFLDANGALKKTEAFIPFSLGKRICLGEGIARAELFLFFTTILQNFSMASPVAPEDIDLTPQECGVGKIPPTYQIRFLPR

Cytochrome P450 2C9 = Cytochrome P450 2C9 (Homo sapiens, UniProt P11712)
Cytochrome P450 2C19 = Cytochrome P450 2C19 (Homo sapiens, UniProt P33261); assay: Inhibition of CYP2C19; format: ADME
[11] = Ratio of drug level in brain to plasma in mouse at 10 mg/kg after 6 hrs; format: ADME, organism-based; design: dose 10 mg/kg; conditions: read-out: BPR
[12] = Plasma concentration in mouse at 10 mg/kg after 6 hrs; format: ADME, organism-based; design: dose 10 mg/kg
[13] = Drug level in mouse brain at 10 mg/kg after 6 hrs; format: ADME, organism-based; design: dose 10 mg/kg; conditions: read-out: Drug uptake
Mus musculus [14] = assay: Antiobesity activity in diet-induced obese C57BL/6J mouse model assessed as reduction of body weight at 30 mg/kg, po qd for 5 days; format: functional; design: scale not given: the % may be the effect or the level left

Sequence of Voltage-gated inwardly rectifying potassium channel KCNH2 (Q12809 whole entry): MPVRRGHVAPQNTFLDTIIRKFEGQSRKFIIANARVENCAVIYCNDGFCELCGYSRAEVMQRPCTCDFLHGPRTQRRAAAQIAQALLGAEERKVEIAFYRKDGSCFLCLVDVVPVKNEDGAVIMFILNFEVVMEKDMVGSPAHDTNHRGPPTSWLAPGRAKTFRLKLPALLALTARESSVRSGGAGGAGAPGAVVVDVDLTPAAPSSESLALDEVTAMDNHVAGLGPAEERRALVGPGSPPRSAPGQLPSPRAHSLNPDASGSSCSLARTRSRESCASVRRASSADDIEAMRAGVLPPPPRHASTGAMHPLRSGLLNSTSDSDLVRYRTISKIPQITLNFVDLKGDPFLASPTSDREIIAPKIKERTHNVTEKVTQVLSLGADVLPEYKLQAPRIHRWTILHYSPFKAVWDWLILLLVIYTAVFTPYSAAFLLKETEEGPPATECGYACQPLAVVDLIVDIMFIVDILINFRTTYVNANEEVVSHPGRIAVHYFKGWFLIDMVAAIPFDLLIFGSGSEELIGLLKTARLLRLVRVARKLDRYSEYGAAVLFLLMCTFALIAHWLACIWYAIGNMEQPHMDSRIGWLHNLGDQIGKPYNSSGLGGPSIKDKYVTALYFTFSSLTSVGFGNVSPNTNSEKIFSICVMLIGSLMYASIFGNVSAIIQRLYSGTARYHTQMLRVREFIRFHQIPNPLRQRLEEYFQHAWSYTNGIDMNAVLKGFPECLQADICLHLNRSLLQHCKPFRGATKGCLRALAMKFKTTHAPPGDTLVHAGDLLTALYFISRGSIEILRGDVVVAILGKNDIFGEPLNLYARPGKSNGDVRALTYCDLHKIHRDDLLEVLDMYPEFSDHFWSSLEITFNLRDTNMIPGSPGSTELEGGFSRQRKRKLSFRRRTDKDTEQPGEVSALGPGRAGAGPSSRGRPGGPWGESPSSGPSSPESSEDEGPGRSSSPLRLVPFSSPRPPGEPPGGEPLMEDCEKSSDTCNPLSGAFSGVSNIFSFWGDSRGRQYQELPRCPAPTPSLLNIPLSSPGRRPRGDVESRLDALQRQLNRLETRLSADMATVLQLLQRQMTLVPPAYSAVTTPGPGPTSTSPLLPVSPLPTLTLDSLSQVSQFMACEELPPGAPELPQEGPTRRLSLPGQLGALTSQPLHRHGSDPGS
T1 sequence (Q99705 whole entry): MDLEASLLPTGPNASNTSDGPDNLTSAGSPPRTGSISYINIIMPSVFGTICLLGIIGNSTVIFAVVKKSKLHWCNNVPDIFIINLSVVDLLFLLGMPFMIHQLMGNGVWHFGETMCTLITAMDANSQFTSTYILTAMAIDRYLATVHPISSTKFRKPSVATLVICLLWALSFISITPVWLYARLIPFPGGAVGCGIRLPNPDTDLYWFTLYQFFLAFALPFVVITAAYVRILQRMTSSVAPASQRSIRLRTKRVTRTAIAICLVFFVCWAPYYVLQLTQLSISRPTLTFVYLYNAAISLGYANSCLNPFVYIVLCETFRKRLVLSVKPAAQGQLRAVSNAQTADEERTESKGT
Sequence of Cytochrome P450 3A4 (P08684 whole entry): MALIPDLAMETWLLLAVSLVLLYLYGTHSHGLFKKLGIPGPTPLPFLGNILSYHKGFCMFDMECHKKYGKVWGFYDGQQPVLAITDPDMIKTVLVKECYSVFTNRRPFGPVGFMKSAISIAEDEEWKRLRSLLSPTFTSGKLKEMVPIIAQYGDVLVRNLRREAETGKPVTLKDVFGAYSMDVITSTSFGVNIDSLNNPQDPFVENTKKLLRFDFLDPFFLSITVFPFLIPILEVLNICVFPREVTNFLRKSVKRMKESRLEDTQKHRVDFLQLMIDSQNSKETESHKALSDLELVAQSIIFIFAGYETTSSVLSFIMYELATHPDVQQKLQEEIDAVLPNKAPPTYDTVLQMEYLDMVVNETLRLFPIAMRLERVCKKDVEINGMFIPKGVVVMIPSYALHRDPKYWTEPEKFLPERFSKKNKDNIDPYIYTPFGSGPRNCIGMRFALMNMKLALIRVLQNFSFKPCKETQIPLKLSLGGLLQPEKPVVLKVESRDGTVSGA
Sequence of Cytochrome P450 2D6 (P10635 whole entry): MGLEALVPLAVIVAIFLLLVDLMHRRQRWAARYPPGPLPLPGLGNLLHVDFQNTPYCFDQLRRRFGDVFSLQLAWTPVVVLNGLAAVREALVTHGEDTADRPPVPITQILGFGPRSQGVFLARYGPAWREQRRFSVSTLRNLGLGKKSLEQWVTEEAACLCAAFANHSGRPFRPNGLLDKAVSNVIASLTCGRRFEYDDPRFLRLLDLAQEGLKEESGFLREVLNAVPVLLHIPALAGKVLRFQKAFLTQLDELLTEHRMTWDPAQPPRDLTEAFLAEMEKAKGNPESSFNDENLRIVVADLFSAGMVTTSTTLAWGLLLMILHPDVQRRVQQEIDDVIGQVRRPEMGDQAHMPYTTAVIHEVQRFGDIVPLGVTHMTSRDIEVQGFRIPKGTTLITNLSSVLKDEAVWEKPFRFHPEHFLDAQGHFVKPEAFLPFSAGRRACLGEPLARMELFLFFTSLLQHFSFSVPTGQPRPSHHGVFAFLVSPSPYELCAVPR
Sequence of Cytochrome P450 2C9 (P11712 whole entry): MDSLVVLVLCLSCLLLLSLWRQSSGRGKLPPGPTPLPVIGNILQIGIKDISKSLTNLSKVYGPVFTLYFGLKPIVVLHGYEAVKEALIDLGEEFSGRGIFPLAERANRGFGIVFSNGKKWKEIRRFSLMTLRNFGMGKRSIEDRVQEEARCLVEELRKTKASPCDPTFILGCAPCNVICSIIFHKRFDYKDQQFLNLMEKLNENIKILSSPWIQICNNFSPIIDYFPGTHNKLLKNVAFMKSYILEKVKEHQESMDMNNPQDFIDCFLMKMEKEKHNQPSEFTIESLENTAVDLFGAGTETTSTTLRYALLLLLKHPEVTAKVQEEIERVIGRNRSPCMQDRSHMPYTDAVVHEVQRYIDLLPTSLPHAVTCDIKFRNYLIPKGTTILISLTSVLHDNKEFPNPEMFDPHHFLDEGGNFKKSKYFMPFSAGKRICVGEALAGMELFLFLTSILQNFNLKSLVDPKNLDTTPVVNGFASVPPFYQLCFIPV
Sequence of Cytochrome P450 2C19 (P33261 whole entry): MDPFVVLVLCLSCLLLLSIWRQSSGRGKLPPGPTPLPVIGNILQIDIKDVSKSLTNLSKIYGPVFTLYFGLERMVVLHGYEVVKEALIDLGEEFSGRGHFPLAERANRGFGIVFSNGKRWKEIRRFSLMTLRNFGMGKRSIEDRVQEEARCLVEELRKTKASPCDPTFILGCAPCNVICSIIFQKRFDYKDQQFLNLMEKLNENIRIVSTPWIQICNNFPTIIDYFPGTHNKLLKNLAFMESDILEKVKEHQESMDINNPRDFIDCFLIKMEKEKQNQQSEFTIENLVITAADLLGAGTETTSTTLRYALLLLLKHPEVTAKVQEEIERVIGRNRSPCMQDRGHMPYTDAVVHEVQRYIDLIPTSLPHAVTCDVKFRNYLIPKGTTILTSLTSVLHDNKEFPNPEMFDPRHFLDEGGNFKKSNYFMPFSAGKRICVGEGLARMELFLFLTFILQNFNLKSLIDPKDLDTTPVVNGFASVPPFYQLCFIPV

Row | SMILES | Ki [2] | IC50 [1] | also measured
1 | O=c1cc(OCc2ccccc2)ccn1-c1ccc2c(cnn2CC2=NCCN2)c1 | 22.6 nM | 8500 nM | half-life [3]: 4.33 h; solubility [4]: 410 µM (≈ 164 µg/mL); half-life [5]: 9.67 h; Activity (Mus musculus [6]): 3.5%; IC50 (Cytochrome P450 3A4): 38000 nM
2 | COC[C@H]1CCCN1CCn1ncc2cc(-n3ccc(OCc4ccccc4)cc3=O)ccc21 | 11.2 nM | 800 nM | 
3 | CCCCn1ncc2cc(-n3ccc(OCc4ccccc4)cc3=O)ccc21 | > 5000 nM |  | 
4 | O=c1cc(OCc2ccccc2)ccn1-c1ccc2c(cnn2CCN2CCCC2)c1 |  |  | concentration at 6 h [7]: 1480 ng/g; concentration at 6 h [8]: 2220 ng/mL; half-life [3]: 5.05 h; solubility [4]: 492 µM (≈ 204 µg/mL); half-life [5]: 11.6 h; IC50 (Cytochrome P450 1A2): > 10000 nM; IC50 [9]: 14 nM; Kp at 6 h [10]: 0.7; IC50 (Cytochrome P450 3A4): 10000 nM
5 | CN(C)CCCn1ncc2cc(-n3ccc(OCc4ccccc4)cc3=O)ccc21 | 12.6 nM | 1400 nM | 
6 | O=c1cc(OCc2ccccc2)ccn1-c1ccc2c(cnn2CCN2CC[C@H](O)C2)c1 | 4.7 nM | 9000 nM | IC50 (Cytochrome P450 2D6): > 10000 nM; IC50 (Cytochrome P450 2B6): > 10000 nM; half-life [3]: 4.82 h; solubility [4]: > 500 µM; half-life [5]: 7.22 h; IC50 (Cytochrome P450 1A2): > 10000 nM; IC50 (Cytochrome P450 2C9): > 10000 nM; IC50 (Cytochrome P450 2C19): > 10000 nM; Activity (Mus musculus [6]): 3.3%; IC50 (Cytochrome P450 3A4): 7700 nM
7 | CO[C@H]1CCN(CCn2ncc3cc(-n4ccc(OCc5ccccc5)cc4=O)ccc32)C1 | 9.4 nM |  | 
8 | O=c1cc(OCc2ccccc2)ccn1-c1ccc2c(cnn2C[C@@H]2CCCN2)c1 | 12 nM | 2000 nM | 
9 | O=c1cc(OCc2ccccc2)ccn1-c1ccc2c(cnn2CC2C[C@@H](O)CN2)c1 (stereo not given in full) | 33 nM | > 30000 nM | 
10 | O=c1cc(OCc2ccccc2)ccn1-c1ccc2c(cnn2CCN2CCOCC2)c1 | 43.4 nM | > 30000 nM | 
11 | O=c1cc(OCc2ccccc2)ccn1-c1ccc2c(cnn2CCN2CC3CC2CO3)c1 (stereo not given) | 17.3 nM | 16000 nM | 
12 | O=c1cc(OCc2ccccc2)ccn1-c1ccc2c(cnn2CCN2CCNCC2)c1 | 24.3 nM |  | 
13 | O=c1c2cc(-c3ccccc3Cl)oc2ccn1-c1ccc2c(cnn2CCN2CCCC2)c1 | 28 nM |  | 
14 | O=c1c2cc(-c3cccc(Cl)c3)oc2ccn1-c1ccc2c(cnn2CCN2CCCC2)c1 | 38 nM |  | 
15 | O=c1c2cc(-c3ccc(Cl)cc3F)oc2ccn1-c1ccc2c(cnn2CCN2CCCC2)c1 | 4.2 nM |  | 
16 | O=c1c2cc(-c3ncccn3)oc2ccn1-c1ccc2c(cnn2CCN2CCCC2)c1 | 1680 nM |  | 

More lines, main results first:

Row | Ki [2] | SMILES | IC50 [1] | also measured
17 | 3.1 nM | O=c1cc(OCc2ccccc2)ccn1-c1ccc2c(cnn2CCN2CCC[C@@H]2CO)c1 | 2300 nM | 
18 | 4.7 nM | CN(C)CCn1ncc2cc(-n3ccc(OCc4ccccc4)cc3=O)ccc21 | 1800 nM | 
19 | 37.7 nM | CN(C)CC(O)Cn1ncc2cc(-n3ccc(OCc4ccccc4)cc3=O)ccc21 (stereo not given) | 12100 nM | 
20 | 30.4 nM | CN1CCN=C1Cn1ncc2cc(-n3ccc(OCc4ccccc4)cc3=O)ccc21 |  | 
21 | 9.7 nM | O=c1c2cc(-c3ccccc3)oc2ccn1-c1ccc2c(cnn2CCN2CCCC2)c1 |  | 
22 | 6.1 nM | O=c1c2cc(-c3ccc(F)cc3)oc2ccn1-c1ccc2c(cnn2CCN2CCCC2)c1 |  | 
23 | 5.2 nM | O=c1c2cc(-c3ccc(Cl)cc3)oc2ccn1-c1ccc2c(cnn2CCN2CCCC2)c1 |  | Kp at 6 h [11]: 16; IC50 [9]: 23 nM; concentration at 6 h [12]: 141 ng/mL; concentration at 6 h [13]: 2250 ng/g; Activity (Mus musculus [14]): 4.5%
24 | 14 nM | O=c1c2cc(-c3ccc(Cl)cc3Cl)oc2ccn1-c1ccc2c(cnn2CCN2CCCC2)c1 |  | 
25 | 48 nM | COc1cc(Cl)ccc1-c1cc2c(=O)n(-c3ccc4c(cnn4CCN4CCCC4)c3)ccc2o1 |  | 
26 | 59 nM | O=c1c2cc(-c3ccccn3)oc2ccn1-c1ccc2c(cnn2CCN2CCCC2)c1 |  | 
